Reference: ChEMBL document CHEMBL1201862, “PubChem BioAssay data set” (2004)
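Interpolation was linear, between the two tested concentrations surrounding the appropriate level; five concentrations were tested over 48 hours in 96-well plates. GI50 marks 50% less growth.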 The source made the active and inactive calls. Cut-off read from the data, not from the text of the source: active = GI50 up to about 1.1 µM and inactive = higher.

Assays:
Assay in all cases: NCI-60 cell line screen, 48 h
[1] = system: COLO 205
[2] = system: CAKI-1
[3] = system: Malme-3M
[4] = system: NCI-H23
[5] = system: M19-MEL
[6] = system: SW-620
[7] = system: M14
[8] = system: OVCAR-4
[9] = system: RXF 393
[10] = system: 786-0
[11] = system: U-251
[12] = system: UACC-62
[13] = system: NCI-H522
[14] = system: HOP-62
[15] = system: OVCAR-8
[16] = system: KM-20L2
[17] = system: HL-60
[18] = system: DLD-1
[19] = system: RPMI-8226
[20] = system: SN12C
[21] = system: UO-31
[22] = system: MOLT-4
[23] = system: OVCAR-3
[24] = system: HOP-92
[25] = system: DMS-114
[26] = system: K562
[27] = system: SNB-75
[28] = system: LXFL 529
[29] = system: SF-268
[30] = system: LOX IMVI
[31] = system: HCT-15
[32] = system: IGROV-1
[33] = system: HCT-116
[34] = system: NCI-H460
[35] = system: SK-OV-3
[36] = system: TK-10
[37] = system: EKVX
[38] = system: OVCAR-5
[39] = system: SF-295
[40] = system: XF498
[41] = system: SNB-19
[42] = system: A549
[43] = system: SF-539
[44] = system: KM12
[45] = system: DMS-273
[46] = system: CCRF-CEM
[47] = system: HOP-18
[48] = system: A498
[49] = system: SK-MEL-2
[50] = system: HT-29
[51] = system: ACHN
[52] = system: UACC-257
[53] = system: SNB-78
[54] = system: SR
[55] = system: T47D
[56] = system: MDA-MB-231
[57] = system: MDA-MB-435
[58] = system: PC-3
[59] = system: Hs-578T
[60] = system: SK-MEL-5
[61] = system: MCF7
[62] = system: NCI-H226
[63] = system: BT-549
[64] = system: NCI/ADR-RES
[65] = system: SK-MEL-28
[66] = system: HCC 2998
[67] = system: DU-145

For `CC(=O)O[C@H]1C(=O)[C@@]2(C)C(C(OC(=O)c3ccccc3)[C@]3(O)CC(OC(=O)C(O)C(NC(=O)c4ccccc4)c4ccc(C)cc4)C(C)=C1C3(C)C)[C@]1(OC(C)=O)CO[C@@H]1C[C@@H]2O` (stereo not given in full), the GI50 [1] was 15.3 nM (active), the GI50 [2] was 104 nM (active) and the GI50 [3] was 53.8 nM (active). The GI50 [4] was 25.1 nM (active), the GI50 [5] was 19.5 nM (active) and the GI50 [6] was 5.55 nM (active). For the same compound, the GI50 [7] was 16.1 nM (active), the GI50 [8] was 3750 nM (inactive) and the GI50 [9] was 7.4 nM (active). The GI50 [10] was 73 nM (active), the GI50 [11] was 19.7 nM (active) and the GI50 [12] was 43 nM (active). For the same compound, the GI50 [13] was 10.8 nM (active), the GI50 [14] was 99.5 nM (active) and the GI50 [15] was 9.79 nM (active). For the same compound, the GI50 [16] was 31 nM (active), the GI50 [17] was 6.9 nM (active) and the GI50 [18] was 186 nM (active). The GI50 [19] was 11.7 nM (active), the GI50 [20] was 54.5 nM (active) and the GI50 [21] was 2000 nM (inactive). For the same compound, the GI50 [22] was 16.3 nM (active), the GI50 [23] was 6.73 nM (active) and the GI50 [24] was 565 nM (active). For the same compound, the GI50 [25] was 19.7 nM (active), the GI50 [26] was 30.8 nM (active) and the GI50 [27] was 53.1 nM (active). For the same compound, the GI50 [28] was 19.9 nM (active), the GI50 [29] was 3640 nM (inactive) and the GI50 [30] was 33 nM (active). The GI50 [31] was 897 nM, the GI50 [32] was 21.5 nM (active) and the GI50 [33] was 9.38 nM (active). For the same compound, the GI50 [34] was 8.26 nM (active), the GI50 [35] was 11.7 nM (active) and the GI50 [36] was 3080 nM (inactive). For the same compound, the GI50 [37] was 8950 nM (inactive), the GI50 [38] was 61.8 nM (active) and the GI50 [39] was 78.7 nM (active). The GI50 [40] was 2.5 nM (active), the GI50 [41] was 24.3 nM (active) and the GI50 [42] was 17.9 nM (active). The GI50 [43] was 10.6 nM (active), the GI50 [44] was 13.7 nM (active) and the GI50 [45] was 12.3 nM (active). For the same compound, the GI50 [46] was 14.7 nM (active), the GI50 [47] was 4010 nM (inactive) and the GI50 [48] was 12000 nM (inactive). For the same compound, the GI50 [49] was 17.9 nM (active), the GI50 [50] was 9.4 nM (active) and the GI50 [51] was 466 nM (active). For the same compound, the GI50 [52] was 65.6 nM (active) and the GI50 [53] was 507 nM (active).
For `CN(Cc1cnc2nc(N)nc(N)c2n1)c1ccc(C(=O)N[C@@H](CCC(=O)O)C(=O)O)cc1` [METHOTREXATE], the GI50 [1] was 1190 nM (inactive), the GI50 [54] was 37.3 nM (active) and the GI50 [2] was 61.4 nM (active). For the same compound, the GI50 [3] was 2360 nM (inactive), the GI50 [4] was 40.8 nM (active) and the GI50 [5] was 424 nM (active). The GI50 [6] was 38.8 nM (active), the GI50 [7] was 33.4 nM (active) and the GI50 [55] was 28000 nM (inactive). For the same compound, the GI50 [56] was 38700 nM (inactive), the GI50 [8] was 59600 nM (inactive) and the GI50 [9] was 20700 nM (inactive). For the same compound, the GI50 [10] was 34 nM (active), the GI50 [57] was 34.1 nM (active) and the GI50 [11] was 72.3 nM (active). The GI50 [12] was 28.6 nM (active), the GI50 [13] was 250 nM (active) and the GI50 [14] was 40.3 nM (active). For the same compound, the GI50 [15] was 29.2 nM (active), the GI50 [16] was 44 nM (active) and the GI50 [17] was 43 nM (active). The GI50 [18] was 35.6 nM (active), the GI50 [58] was 86.5 nM (active) and the GI50 [19] was 66.1 nM (active). The GI50 [59] was 192000 nM (inactive), the GI50 [20] was 32.1 nM (active) and the GI50 [21] was 227 nM (active). For the same compound, the GI50 [22] was 32.6 nM (active), the GI50 [60] was 90 nM (active) and the GI50 [23] was 433 nM (active). For the same compound, the GI50 [61] was 48.6 nM (active), the GI50 [24] was 7210 nM (inactive) and the GI50 [25] was 28.8 nM (active). For the same compound, the GI50 [26] was 28.5 nM (active), the GI50 [27] was 21700 nM (inactive) and the GI50 [28] was 33.6 nM (active). The GI50 [29] was 40.9 nM (active), the GI50 [62] was 20000 nM (inactive) and the GI50 [63] was 69500 nM (inactive). For the same compound, the GI50 [30] was 27.4 nM (active), the GI50 [31] was 34.3 nM and the GI50 [32] was 90.8 nM (active). For the same compound, the GI50 [33] was 34.7 nM (active), the GI50 [34] was 28 nM (active) and the GI50 [35] was 20700 nM (inactive). For the same compound, the GI50 [36] was 37400 nM (inactive), the GI50 [37] was 18400 nM (inactive) and the GI50 [38] was 916 nM (active). For the same compound, the GI50 [64] was 92.9 nM (active), the GI50 [39] was 38.3 nM (active) and the GI50 [40] was 68500 nM (inactive). For the same compound, the GI50 [41] was 590 nM (active), the GI50 [42] was 34.5 nM (active) and the GI50 [43] was 37.5 nM (active). The GI50 [44] was 49.3 nM (active), the GI50 [45] was 30.8 nM (active) and the GI50 [46] was 29.6 nM (active). For the same compound, the GI50 [47] was 15900 nM (inactive), the GI50 [48] was 4780 nM (inactive) and the GI50 [49] was 102000 nM (inactive). For the same compound, the GI50 [50] was 33.5 nM (active), the GI50 [65] was 4860 nM (inactive) and the GI50 [66] was 119 nM (active). The GI50 [51] was 38.5 nM (active), the GI50 [67] was 47.6 nM (active) and the GI50 [52] was 836 nM (active). For the same compound, the GI50 [53] was 117000 nM (inactive).
